# Experimental data: PubChem BioAssay (NCI)
#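 Compound exposure: 48 hours, 5 concentrations, 96-well plates. The concentration for 50% growth inhibition is given as GI50. TGI: concentration producing complete growth inhibition.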
# Tests used:
# Assay in all cases: inhibition of tumour cell growth, NCI panel, 48 h
# ACHN renal = test system: ACHN renal
# HL-60(TB) leukemia = test system: HL-60(TB) leukemia
# MCF7 breast = test system: MCF7 breast
# MDA-MB-435 = test system: MDA-MB-435
# HCT-15 colon = test system: HCT-15 colon
# CCRF-CEM leukemia = test system: CCRF-CEM leukemia
# OVCAR-8 ovarian = test system: OVCAR-8 ovarian
# A498 renal = test system: A498 renal
# LOX IMVI melanoma = test system: LOX IMVI melanoma
# SR leukemia = test system: SR leukemia
Compound,GI50 (ACHN renal) [nM],TGI (ACHN renal) [µM],GI50 (HL-60(TB) leukemia) [nM],TGI (HL-60(TB) leukemia) [µM],GI50 (MCF7 breast) [nM],TGI (MCF7 breast) [µM],GI50 (MDA-MB-435) [nM],TGI (MDA-MB-435) [µM],GI50 (HCT-15 colon) [nM],TGI (HCT-15 colon) [µM],GI50 (CCRF-CEM leukemia) [µM],TGI (CCRF-CEM leukemia) [µM],GI50 (OVCAR-8 ovarian) [µM],TGI (OVCAR-8 ovarian) [µM],GI50 (A498 renal) [nM],TGI (A498 renal) [µM],GI50 (LOX IMVI melanoma) [nM],TGI (LOX IMVI melanoma) [µM],GI50 (SR leukemia) [nM],TGI (SR leukemia) [µM]
COC[C@H](NC(=O)c1cnc(C)s1)C(=O)N[C@@H](COC)C(=O)N[C@@H](Cc1ccccc1)C(=O)[C@@]1(C)CO1,34800,> 100,35000,> 100,11100,> 100,12900,40,31200,> 100,21.3,> 100,> 93.2,> 100,45300,> 100,17800,38.4,> 61400,> 100
CCOC(=O)C(=Cc1ccc(C#N)cc1)C(=O)OCC,1780,3.46,1880,5.48,2070,7.61,1980,4.79,2030,6.17,3,9.32,3.54,11.4,7840,20.1,1800,3.87,1310,> 100
CCC(CC)n1cnc2c(-c3cnc(N)cn3)nc(N3CC4CCC(C3)O4)nc21,324,> 100,1410,> 100,156,> 100,314,4.63,432,> 100,0.443,> 100,0.769,> 100,74.9,0.466,428,> 100,351,> 100
Cc1ccc(CNc2ccc3nc(CCC4CCCCC4)[nH]c3c2)cc1,3090,9.65,1980,4.62,2140,6.24,2090,4.85,1940,6.82,3.29,> 100,3.21,> 100,1440,4.32,1740,3.19,2910,8.74
O=C(c1c(F)c(F)c(F)c(F)c1F)c1c(F)c(F)c(F)c(F)c1F,,3.09,,> 100,,2.58,,3.21,,3.83,,1.15,,2.97,,9.16,,2.19,,1.07
Cc1ccc(OP(=O)(Oc2ccc(C)cc2)N2C=Cc3ccccc3C2C#N)cc1 (stereo unspecified),,> 100,,> 100,,> 100,,> 100,,> 100,,> 100,,> 100,,> 100,,> 100,,> 100
COc1cc(-n2ccnc2-c2ccc3ccccc3c2)cc(OC)c1OC,2600,49,23.2,> 37.6,< 19.9,> 45.8,,0.124,50.9,> 48.6,0.136,> 100,0.398,> 53.1,45.1,1.42,1080,> 47.6,< 18.8,> 43.4
O=C1c2c(c(=O)[nH]c3ccccc23)[C@H](c2ccccc2)[C@@H]2CCCN12,2640,14.9,1980,8.29,2570,9.38,3700,15.2,3370,> 100,4.61,> 100,3.62,> 100,1930,9.09,2300,11.8,2610,36.7
O=C(O)c1cccc(S(=O)(=O)NCCO)c1,,> 100,,> 100,,> 100,,> 100,,> 100,,> 100,,> 100,,> 100,,> 100,,> 100
COc1cnc2c(c1)C(=O)c1c-2n(CCCN2CCCC2)c(=O)c2cc([N+](=O)[O-])ccc12,< 10,0.132,29.9,1.06,< 10,1.46,64.7,1.13,61.6,4.05,< 0.01,3.77,0.0929,5.85,,,< 10,0.112,< 10,1.34
C=CCC1(C(=O)OC)CCC/C(=N\O)C1 (stereo unspecified),,> 10,,> 10,,> 10,,> 10,,> 10,,> 10,,> 10,,,,> 10,,> 10
